{
  "source": "patent US20230054976A1",
  "about": "“METHODS FOR INHIBITION OF ALPHA-SYNUCLEIN mRNA USING SMALL MOLECULES” (The Scripps Research Institute, priority 2019, published 2023)",
  "key": {"[1]": {"tested_on": "SH-SY5Y cells transcriptome", "experiment": "RNA-Seq transcriptome-wide differential expression", "format": "cell-based, human", "conditions": "48 h; Synucleozid 1.5 μM vs vehicle; siRNA 0.1 μM vs scrambled control", "experimental": "RNA-Seq. SH-SY5Y cells were treated or transfected as described above for 48 h with Synucleozid (1.5 μM) and siRNA (0.1 μM). Total RNA was extracted using a miRNeasy Mini Kit (Qiagen, as described above) with on-column DNase I treatment. Qubit 2.0 Fluorometer (Invitrogen) was used for total RNA quantification. Quality of total RNA was assessed by using an Agilent Technologies 2100 Bioanalyzer RNA nano chip. Samples which have RNA integrity number >8.0 were used in future experiments. Probes provided by the NEBNext rRNA depletion module (catalog no.: E6310L, New England Biosciences) were used to deplete rRNA on approximate 500 ng of total RNA according to the manufacturer's recommendations. Library preparation was done with NEBNext Ultra 11 Directional RNA kit (catalog no.: E7760, New England Biosciences) according to the manufacturer's instructions. RNA samples were heated to 94° C. and simultaneously chemically fragmented in a divalent cation buffer for 15 min. Conversion of fragmented RNA to the first strand of cDNA was done with random hexamer priming and reverse transcription. To synthesize second strand, RNA template was removed and dUTP in place of dTTP was incorporated. […] Every sample with a base quality score >Q30 (<1 error per 1000 bp) generated around 20-25 million reads. Transcript abundance from these RNA samples were quantified using Kallisto (12). […]"}, "[2]": {"tested_on": "SNCA IRE dually labeled with Cy3 and Cy5", "experiment": "FRET-based ASO-Bind-Map", "format": "binding, human", "conditions": "1 μM, ASO 500 nM", "experimental": "FRET-based ASO-Bind-Map. The SNCA IRE dually labeled with Cy3 and Cy5 dyes (100 nM) was folded by heating at 65° C. for 5 min in 1× Assay Buffer and slowly cooling to room temperature. BSA was added to the RNA solutions to a final concentration of 40 μg/mL followed by addition of compound. The mixtures were incubated at room temperature for 30 min. Fluorescence spectra were then acquired as a function of time (in kinetics mode) for 20 min using a Cary Eclips fluorescence spectrophotometer, with excitation and emission wavelengths of 532/10 nm and 668/5 nm, respectively. The ASO of interest was then added to a final concentration of 500 nM, and fluorescence spectra were acquired as described above."}, "[3]": {"target": "T1, IRP-2:SNCA IRE RNA complex (Homo sapiens, UniProt P48200)", "T1 construct": "purchased Abnova", "T1 sequence (P48200 whole entry, species assumed, one chain of several)": "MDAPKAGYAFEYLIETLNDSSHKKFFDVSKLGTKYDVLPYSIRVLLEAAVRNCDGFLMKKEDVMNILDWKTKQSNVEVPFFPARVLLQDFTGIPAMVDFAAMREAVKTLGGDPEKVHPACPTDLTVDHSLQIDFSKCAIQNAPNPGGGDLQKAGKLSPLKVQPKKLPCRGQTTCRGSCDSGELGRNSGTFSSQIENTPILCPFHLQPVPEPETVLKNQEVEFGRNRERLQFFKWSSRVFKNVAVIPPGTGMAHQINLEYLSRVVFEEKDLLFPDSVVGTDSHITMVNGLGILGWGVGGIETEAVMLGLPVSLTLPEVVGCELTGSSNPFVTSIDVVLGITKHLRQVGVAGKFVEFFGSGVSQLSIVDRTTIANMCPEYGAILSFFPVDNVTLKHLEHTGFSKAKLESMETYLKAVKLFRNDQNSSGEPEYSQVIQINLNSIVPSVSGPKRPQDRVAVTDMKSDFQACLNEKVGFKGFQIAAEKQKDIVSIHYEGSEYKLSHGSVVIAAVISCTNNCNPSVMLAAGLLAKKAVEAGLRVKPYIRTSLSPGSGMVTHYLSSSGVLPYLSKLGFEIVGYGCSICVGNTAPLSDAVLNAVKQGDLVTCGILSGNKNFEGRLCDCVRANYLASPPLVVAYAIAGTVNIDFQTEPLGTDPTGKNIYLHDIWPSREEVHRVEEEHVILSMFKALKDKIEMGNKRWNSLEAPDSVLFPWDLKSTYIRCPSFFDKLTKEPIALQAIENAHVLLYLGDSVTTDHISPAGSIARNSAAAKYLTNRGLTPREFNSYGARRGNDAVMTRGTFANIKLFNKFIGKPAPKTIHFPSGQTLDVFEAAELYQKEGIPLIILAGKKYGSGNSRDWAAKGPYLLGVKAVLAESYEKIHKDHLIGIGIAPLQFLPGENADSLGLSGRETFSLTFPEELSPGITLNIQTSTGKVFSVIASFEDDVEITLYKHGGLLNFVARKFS", "experiment": "In vitro displacement of IRPs by gel mobility shift assay, IRP-2", "format": "binding", "conditions": "0.2, 1, 5 μM; pre-incubation 1-60 min", "experimental": "In vitro displacement of IRPs by gel mobility shift assays. SNCA IRE hairpin RNA was 5′-end labeled with [γ-^32P]ATP as previously described^5. Approximately, 2 pmoles of ^32P labeled RNA per 20 μL reaction was folded in 1× Assay Buffer by heating at 65° C. for 5 min and slowly cooling to room temperature. As indicated, vehicle, Synucleozid (0.2, 1, 5 μM) or unlabeled IRE RNA (1 μM, folded as described above and used as a positive control) was added to the samples, and the samples were incubated at room temperature for varying amounts of time (1-60 min as indicated). Then, 0.5 μg IRP-1 or IRP-2 (Abnova) was added, and the samples were incubated at room temperature for an additional 30 min. An equal volume of 2× Native Gel Loading Buffer (2×TBE, 50% Glycerol, 0.025% (w/v) Bromophenol blue and Xylene cyanol FF) was added to each sample. Note, Native Gel Loading Buffer added to Synucleozid-treated samples was supplemented with the same concentration of Synucleozid as in the sample to maintain a constant concentration. IRP:IRE complexes and free IRE were separated on a native 15% polyacrylamide prepared 1×TBE supplemented with the same concentration of Synucleozid as in compound-treated samples, and imaged using a Bio-Rad PMI phosphorimager. Images were quantified with BioRad's Quantity One software."}},
  "data": [
    {"molecule": "N=C(N)c1ccc(Nc2ccc(-c3cc4ccc(C(=N)N)cc4[nH]3)cc2)cc1", "note": "[Synucleozid A]", "values": [
      {"measurement": "genes unchanged / genes detected", "setting": "[1]", "result": "19979/20034"},
      {"measurement": "genes unchanged, percentage", "setting": "[1]", "result": 99.7, "unit": "%"},
      {"measurement": "reduction of ASO-induced unfolding (FRET)", "setting": "[2]", "result": "only able to reduce the extent of unfolding induced by ASO(1-10) and ASO(40-50)"},
      {"measurement": "effect on binding of IRP-2 to SNCA IRE RNA", "setting": "[3]", "result": "Neither Synucleozid concentration (0.2, 1, 5 μM) nor pre-incubation time (1, 5, 15, 60 min) has any significant effect"}
    ]}
  ]
}
